Holding throughout (assay type): functional
Assay [1] deals with Hordeum vulgare subsp. vulgare. The experiment in a line: Compound was tested for inhibition of GA-inducible alpha-amylase induction in barley aleurone protoplasts at 100 uM.
Assay [2] has as its system Hordeum vulgare subsp. vulgare. Description: Compound was tested for inhibition of GA-inducible alpha-amylase induction in barley aleurone protoplasts at 0.1 uM.
Assay [3] relates to Hordeum vulgare subsp. vulgare. The experiment in a line: Compound was tested for inhibition of GA3-induced alpha-amylase induction and induction of the accumulation of dehydrin in unstressed barley seeds; Active.
The test system of assay [4] is Lepidium sativum. Description: Compound was tested for inhibition of cress germination at 100 uM.
Assay [5] concerns Lepidium sativum. Description: Compound was tested for inhibition of cress germination at 1 uM.
The test system of assay [6] is Lepidium sativum. Description: Compound was tested for inhibition of cress germination at 0.1 uM.
The subject of assay [7] is Hordeum vulgare subsp. vulgare. The experiment in a line: Compound was tested for inhibition of GA-inducible alpha-amylase induction in barley aleurone protoplasts at 10 uM.
The test system of assay [8] is Hordeum vulgare subsp. vulgare. The experiment in a line: Compound was tested for inhibition of GA-inducible alpha-amylase induction in barley aleurone protoplasts at 1 uM.
The subject of assay [9] is Lepidium sativum. Description: Compound was tested for inhibition of cress germination at 10 uM.
Assay [10] has as its system Hordeum vulgare subsp. vulgare. The experiment in a line: Compound was tested for inhibition of GA3-induced alpha-amylase induction and induction of the accumulation of dehydrin in unstressed barley seeds at 10 uM; Active.

Activity calls are given as the source filed them. No cut-off for these calls is given here.

As a reminder, the inhibition is how much of the control response was suppressed. Low values mean a response near the control, high ones a response far below the control. Take `CO[C@@H]1C=C(C)[C@](O)(/C=C/C(C)=C\C(=O)O)C(C)(C)C1`: the inhibition in assay [1] is 100%; in [2], 60%; in assay [7], 100%; in [8], 90%. Also, the result in assay [3] was Active. The inhibition at 100 µM in assay [4] was roughly 100%. Also, the inhibition at 1 µM in [5] was roughly 60%. The same compound returned an inhibition at 0.1 µM in assay [6] of roughly 40%. Also, in [9], the inhibition at 10 µM is roughly 95%.
With `CC1=CC(=O)CC(C)(C)[C@@]1(O)/C=C/C(C)=C\C(=O)O` (racemic) [(+)-ABSCISIC ACID], the inhibition in assay [1] was 100%; in assay [2], 50%; in assay [7], 100%; in [8], 100%. In [4], this compound yielded an inhibition at 100 µM of roughly 100%. This compound also came in with an inhibition at 1 µM in [5] of roughly 80%. The compound further had an inhibition at 0.1 µM in assay [6] of roughly 60%. Further, the inhibition at 10 µM in assay [9] was roughly 100%. For the same compound, the outcome in assay [10] was Active.
`CO[C@H]1C=C(C)[C@](O)(/C=C/C(C)=C\C(=O)O)C(C)(C)C1`: the inhibition in assay [1] was 100%; in assay [2], 20%; in [7] it was 90%; in assay [8] it was 50%. In addition, the outcome in assay [3] was Active. This compound yielded an inhibition at 100 µM in assay [4] of roughly 100%. Also, in assay [5], the inhibition at 1 µM is roughly 40%. Moreover, in assay [6], the inhibition at 0.1 µM was roughly 20%. This compound also had an inhibition at 10 µM in [9] of roughly 95%.
